Read-outs that look alike come from different tables or passages of the source.

Series [1] addresses cholesterol esterase from rat. As to conditions: Borgstrom 1988; water soluble artificial and colorimetric substrates; cited from earlier work.
Series [2] addresses 52 kDa human pancreatic triglyceride lipage. As to conditions: literature; cited from earlier work.
Series [3] concerns the target T1, Human pancreatic cholesterol esterase (Homo sapiens, UniProt P19835).
T1 construct: Human pancreatic cholesterol esterase was purified as described by Bosner et al; from tissue; host or cells: human pancreas (purified to homogeneity)
T1 sequence (P19835 21-753): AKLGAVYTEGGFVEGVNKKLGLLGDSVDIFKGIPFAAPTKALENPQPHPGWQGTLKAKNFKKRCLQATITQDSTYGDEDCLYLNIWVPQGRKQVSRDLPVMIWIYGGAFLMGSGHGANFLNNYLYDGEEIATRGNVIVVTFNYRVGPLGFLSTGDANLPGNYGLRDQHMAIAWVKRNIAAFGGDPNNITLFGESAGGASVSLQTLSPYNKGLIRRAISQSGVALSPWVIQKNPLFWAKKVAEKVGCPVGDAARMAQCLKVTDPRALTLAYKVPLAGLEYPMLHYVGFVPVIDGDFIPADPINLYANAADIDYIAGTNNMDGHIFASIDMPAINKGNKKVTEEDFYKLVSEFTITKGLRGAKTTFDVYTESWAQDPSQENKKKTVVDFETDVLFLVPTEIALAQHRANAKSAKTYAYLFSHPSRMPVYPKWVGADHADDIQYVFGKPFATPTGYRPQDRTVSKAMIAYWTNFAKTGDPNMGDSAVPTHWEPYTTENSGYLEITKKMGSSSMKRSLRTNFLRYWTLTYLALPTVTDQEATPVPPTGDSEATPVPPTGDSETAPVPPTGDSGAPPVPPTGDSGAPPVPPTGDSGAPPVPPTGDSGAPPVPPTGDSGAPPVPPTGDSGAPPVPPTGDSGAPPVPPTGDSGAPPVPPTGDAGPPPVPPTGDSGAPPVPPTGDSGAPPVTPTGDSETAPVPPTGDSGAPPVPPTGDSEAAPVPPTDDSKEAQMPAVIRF
In words: Inhibition of human pancreatic cholesterol esterase, cholesteryl 14C-oleate hydrolysis. It is filed as biochemical.

In series [4] the target is human 100 kDa cholesterol esterase. In words: Inhibition of triolein hydrolysis by human 100 kDa cholesterol esterase. The following applies: Table 3; triolein as substrate. The format is biochemical. Here is the method: Alginic acid from Macrocystis pyrifera (kelp) was dissolved in water at a concentration of 1 mg/ml. This stock solution was used to prepare various polysaccharide concentrations down to 10^-5 mg/ml. Human pancreatic cholesterol esterase was purified as described by Bosner et al., Proc. Nat'l, Acad, Sci., 85, 7438 (1988). To measure cholesterol esterase inhibition by alginic acid, 50 μl of cholesterol esterase (10 μg/ml), 75 μl of phosphatidylcholine vesicles containing cholesteryl ^14 C-oleate (1 mM 2,000 CPM/nmole), 25 μl of 100 mM taurocholate, 120 μl of 150 mM Tris, pH 7.5 and 30 μl of test alginic acid solution were incubated at 37° C. for fifteen minutes. The assay was quenched by placing the reaction vessels in a 4° C. ice bath and by adding 0.6 ml of 0.3 N NaOH and 3 ml of benzene/chloroform/methanol (1.0/1.2/0.5). The quenched reactions were vortexed for 30 seconds, centrifuged at 3,000 g for 15 minutes and 1 ml of the upper aqueous phase was added to 7 ml of Aquasol-2 (DuPont) with 0.025 ml of 6 N HCl. These mixtures were vortexed for one minute and counted for ^14 C-oleate. The counts were compared to a sample which contained cholesterol esterase but no alginic acid to determine the percentage of inhibition.
(The same assay procedure was used as described in Part I, only triolein was used instead of cholesteryl oleate.) As shown in the table below, the IC50 for inhibition of triolein hydrolysis is nearly the same as that for cholesteryl oleate hydrolysis.

The target in series [5] is cholesterol esterase. Nature of the series: Inhibition of cholesterol oleate hydrolysis by cow pancreatic cholesterol esterase. It is filed as biochemical. As to conditions: enzyme from the cow. From the text: (§1) These sulfated polysaccharides are also inhibitors of animal pancreatic cholesterol esterase.
Series [6] in a line: In vivo cholesterol uptake in cholesteryl oleate fed rabbit, nasogastric dosing. Here is the method: Inhibition of cholesterol uptake from either free cholesterol or from cholesteryl oleate was examined in vivo using cellulose sulfate. A rabbit which had been fed cholesteryl oleate for six weeks was fasted for twelve hours and a nasogastric cube was inserted into its stomach. Five ml of a cellulose sulfate solution (100 mg/ml) in Tris buffer were added followed by 10 ml of 20 uCi of ^3 H cholesterol incorporated in phosphatidylcholine vesicles and 10 ml of 20 uCi of ^14 C cholesteryl oleate. The nasogastric tube was then flushed with an additional 5 ml of cellulose sulfate solution (100 mg/ml). After the tube was removed, blood was drawn from an ear vein as a function of time and 100 μl of plasma was counted for ^14 C and ^3 H. As shown, cellulose sulfate inhibited by 85% the uptake of either free cholesterol or cholesterol derived from cholesteryl oleate (FIG. 5).

Series [7] relates to cholesterol esterase. Nature of the series: Inhibition of cholesterol oleate hydrolysis by pig pancreatic cholesterol esterase. It is filed as biochemical. The following applies: enzyme from pig pancreas.
Description: as §1

For series [8], the system named is cholesterol esterase. Nature of the series: Inhibition of cholesterol oleate hydrolysis by rat pancreatic cholesterol esterase. It is filed as biochemical. As to conditions: enzyme from rat pancreas.
Description: as §1

In series [9] the test system is cholesterol esterase. Nature of the series: Inhibition of cholesterol oleate hydrolysis by rabbit pancreatic cholesterol esterase. As to conditions: enzyme from rabbit pancreas. The format is biochemical.
Description: as §1

In series [10] the test system is Colonic adenocarcinoma cells (CaCo-2). Nature of the series: Cholesterol esterase catalyzed cholesterol uptake by CaCo-2 cells. The following applies: CaCo-2, bovine 72 kDa cholesterol esterase. The format is cell-based. On the procedure:
Colonic adenocarcinoma cells (CaCo-2, American Type Culture Collection) were grown to a density of 2×10^6 cells on […] coverslips in Dulbecco's Moditied Eagle's Medium containing 10% (v/v) lipoprotein depleted serum. The coverslips were washed with phosphate buffered saline (PBS) and transferred to 35 mm wells containing 1.0 ml PBS, 2 mM taurocholate and 1% bovine serum albumin. The cells were then incubated at 37° C. with 0.01 uCi of ^3 H cholesterol and 0.01 uCi of ^14 C-cholesteryl oleate, which were embedded in phosphatidylcholine vesicles. The control wells received no cholesterol esterase while the experimental set received bovine 72 kDa cholesterol esterase. At various incubation times the coverslips were removed, washed three times with PBS, and the cells were collected by scraping and washing with 250 mM tris glycine buffer (pH 8.8) containing 0.1% SDS. The cells were collected by centrifugation and the pellet was heated at 100° C. for five minutes and then sonicated for ten minutes. The uptake of cholesterol, either from free sterol or from cholesteryl oleate, was determined by scintillation counting for ^3 H or ^14 C, respectively.

Series [11] deals with cholesterol esterase. In words: Stability under baking conditions: cholesterol esterase inhibition by muffin supernatant. The following applies: retention of inhibitory activity. On the procedure: The sulfated polysaccharides described here retain their inhibitory activity for prolonged periods at elevated temperatures. […] For example, 109 mg of cellulose sulfate were added to 198 gm (7 oz) of corn muffin mix (Gold Medal,) and the solid ingredients were thoroughly mixed together. After the addition of one egg and one third cup milk, the muffin mix was stirred fifteen times. The mixture was poured into nine muffin tins and baked for fifteen minutes in a 400° oven. The next day one muffin was broken up, added to 100 ml of water and allowed to stand for fifteen minutes. The mixture was centrifuged and the clear supernatant was assayed for the presence of cholesterol esterase inhibition. The IC50 of this solution was achieved when this solution was diluted 10^3 -10^4 times.

The nature of series [12]: Serum radiolabeled cholesterol in rabbit fed cellulose sulfate chow. As to conditions: chow with 0.5% cellulose sulfate. It is filed as in vivo, New Zealand White rabbit. From the text: A New Zealand White rabbit was maintained on regular rabbit chow. Two days before the experiment began the animal was fed chow to which cellulose sulfate had been added to give a final concentration of 0.5%. After 12 hrs. on regular chow then, the experiment began with the administration of ^14 C-cholesteryl oleate as described above. The animal was then allowed to eat and drink regular chow in a normal manner. Blood samples were withdrawn from an ear vein and the radiolabeled cholesterol measured by scintillation counting. […] In contrast, in the control animal, label appears only two hours after its administration.

In series [13] the test system is cholesterol esterase. The following applies: Bosner et al., 1988; cited from earlier work.
Setting [14] is: Table 3, cholesteryl oleate as substrate, read-out: IC50 (nM) Cholesteryl Oleate.
Setting [15] is: cholesteryl oleate hydrolysis, molar value based on assumed polymer molecular weight, read-out: IC50.

In general, Ki refers to the equilibrium dissociation constant of an inhibitor or competing ligand from its target. Take `CCCCCCCCCCC[C@@H](C[C@@H]1OC(=O)[C@H]1CCCCCC)OC(=O)[C@H](CC(C)C)NC=O` [tetrahydrolipstatin]: the figures for the inhibition constant Ki in series [1] and in series [2] were 100000 nM and 100 nM, respectively.

By IC50 is commonly meant the concentration at which inhibition is half-maximal. For the molecule Alginic acid [reference compound], the half-maximal inhibitory concentration (IC50) is 20 nM in series [3] (Table 1, read-out: IC50); 20 nM in series [3] (setting [14]); 4 µg/mL in series [3] (cholesteryl oleate hydrolysis); 20 nM in [3] (setting [15]); 42 nM in [4]. In [3] (Table 1, relative to alginic acid), the “Enhancement Factor” value came out at 1.0.

Regarding Cellulose Sulfate, the inhibition constant Ki at cholesterol esterase [5] was 100 nM. Moreover, the 50% inhibitory concentration (IC50) in [3] (Table 2, read-out: IC50) stood at 0.02 nM; in series [3] (setting [14]), 0.02 nM; in series [3] (setting [15]) it was 0.02 nM; in [4], 0.06 nM. In series [6] (rabbit, nasogastric cellulose sulfate 100 mg/ml, 3H cholesterol in plasma, FIG. 5), the “inhibition of uptake of free cholesterol” value is reported as 85%. In [6] (rabbit, nasogastric cellulose sulfate 100 mg/ml, 14C in plasma, FIG. 5), the “inhibition of uptake of cholesterol derived from cholesteryl oleate” value is 85%. For the same molecule, the “absorption of free cholesterol” value in series [6] (rabbits) was “decreases absorption of free cholesterol”. In series [6] (rabbits fed cholesterol oleate), the “decrease of cholesterol absorption” value is “over 70%”. The “inhibition of cholesterol oleate hydrolysis” value in the series on cholesterol esterase [7], in the series on cholesterol esterase [8] and in the series on cholesterol esterase [9] was “inhibits” in each case. Besides, the “uptake of cholesterol derived from cholesteryl oleate by the cells” value in series [10] (FIG. 4a) was “markedly inhibits cholesterol uptake”. Moreover, the “uptake of free cholesterol by the cells” value in series [10] (FIG. 4b) was “markedly inhibits cholesterol uptake”. Further, the “stability at elevated temperatures / baking conditions” value with cholesterol esterase [11] is on record as “stable under baking conditions”. Besides, in [12], the “time until cholesterol appears in serum after administration of the label” value is “four”. Also, the “reduction of level of serum cholesterol compared to control rabbit” value in [12] (14C-cholesteryl oleate label, FIG. 7) is given as 50%.

As for Chitin Sulfate, the IC50 came to 0.16 nM in series [3] (Table 2, read-out: IC50); 0.3 nM in [3] (setting [14]); 0.3 nM in series [3] (setting [15]); 0.35 nM in series [4].

As for Chitosan Sulfate, the IC50 in series [3] (Table 2, read-out: IC50) came to 0.16 nM; in series [3] (setting [14]), 0.3 nM; in [3] (setting [15]), 0.3 nM; in series [4], 0.85 nM.

In the case of chondroitan sulfate, the “interaction with cholesterol esterase” value in the series on cholesterol esterase [13] is listed as “does not interact with cholesterol esterase”.

For “pectin [native, unsulfated pectin, reference compound]”, the “inhibition of cholesterol esterase (in words)” value in series [3] (hydrolysis of cholesterol esters) was “does not inhibit cholesterol esterase”.

Values taken from patent US5616570A, “Use of non-absorbable synthetic sulfated polysaccharides to decrease cholesterol absorbtion” (priority 1994, dated 1997).
